These results are taken from patent US3992371A, “Penicillins substituted with heterocyclic and substituted phenyl groups” (Sumitomo Chemical Company, Limited, priority 1973, dated 1976).

Values after ≈ are worked out from the molar mass of the structure shown. Counter-ions that a name gives are not always drawn.

What is called MIC is the lowest concentration that inhibits growth of the organism. Higher therefore signals weaker potency.

Holding throughout (assay): Minimal inhibitory concentration, agar dilution method
Assay type in all cases: cell-based
On the technique in general: Agar dilution tests growth on a series of plates holding different concentrations.

The test system of assay [1] is Escherichia coli NIHJ. From the text:
(§1) When determined according to the agar dilution method, the penicillins (I) afford the minimal inhibitory concentrations against test microorganisms as shown in Table 2.

For assay [2], the system named is Klebsiella pneumoniae PCI602.
From the text: as §1

Assay [3] has as its system Pseudomonas aeruginosa 104.
From the text: as §1

For assay [4], the system named is Staphylococcus aureus 209P.
From the text: as §1

Assay [5] has as its system Proteus vulgaris HV19.
Assay [6] has as its system Proteus miravilis GN2425.

For the molecule `CCOC(=O)Oc1c(C(=O)NC(C(=O)NC2C(=O)N3C2SC(C)(C)C3C(=O)O)c2ccc(OC)cc2)cnc2ccc(C)nc12` (stereo not drawn) [Example 46], the MIC in assay [1] came to 3.13 µg/mL (≈ 4.91 µM); in assay [2] it was 12.5 µg/mL (≈ 19.6 µM); in assay [3], 3.13 µg/mL (≈ 4.91 µM); in assay [4], 1.56 µg/mL (≈ 2.45 µM); in assay [5] it was 0.1 µg/mL (≈ 0.157 µM); in assay [6], 12.5 µg/mL (≈ 19.6 µM).

On to `COc1ccc(C(NC(=O)c2cnc3ccc(C)nc3c2O)C(=O)NC2C(=O)N3C2SC(C)(C)C3C(=O)O)cc1` (stereo not drawn) [Example 44], for which the MIC was determined as 3.13 µg/mL (≈ 5.53 µM) in assay [1]; 12.5 µg/mL (≈ 22.1 µM) in assay [2]; 3.13 µg/mL (≈ 5.53 µM) in assay [3]; 1.56 µg/mL (≈ 2.76 µM) in assay [4]; 0.05 µg/mL (≈ 0.0884 µM) in assay [5]; 6.25 µg/mL (≈ 11.1 µM) in assay [6].

Regarding `CC(=O)Nc1ccc2ncc(C(=O)NC(C(=O)N[C@@H]3C(=O)N4[C@@H]3SC(C)(C)[C@@H]4C(=O)O)c3cccc(N)c3)c(O)c2n1` (stereo partly drawn) [Example 26], the MIC in assay [1] amounted to 0.78 µg/mL (≈ 1.31 µM); in assay [2] it was 6.25 µg/mL (≈ 10.5 µM); in assay [3], 0.78 µg/mL (≈ 1.31 µM); in assay [4], 1.56 µg/mL (≈ 2.63 µM); in assay [5], 0.025 µg/mL (≈ 0.0421 µM); in assay [6], 0.78 µg/mL (≈ 1.31 µM).

As to `CSc1ccc2ncc(C(=O)NC(C(=O)N[C@@H]3C(=O)N4[C@@H]3SC(C)(C)[C@@H]4C(=O)O)c3ccc(N)cc3)c(O)c2n1` (stereo partly drawn) [Example 24], the MIC worked out at 0.78 µg/mL (≈ 1.34 µM) in assay [1]; 6.25 µg/mL (≈ 10.7 µM) in assay [2]; 1.56 µg/mL (≈ 2.68 µM) in assay [3]; 1.56 µg/mL (≈ 2.68 µM) in assay [4]; 0.025 µg/mL (≈ 0.0429 µM) in assay [5]; 0.78 µg/mL (≈ 1.34 µM) in assay [6].

Turning to `Cc1ccc2ncc(C(=O)NC(C(=O)NC3C(=O)N4C3SC(C)(C)C4C(=O)O)c3ccc(N(C)C)cc3)c(O)c2n1` (stereo not drawn) [Example 45], the MIC came to 3.13 µg/mL (≈ 5.41 µM) in assay [1]; 6.25 µg/mL (≈ 10.8 µM) in assay [2]; 1.56 µg/mL (≈ 2.7 µM) in assay [3]; 1.56 µg/mL (≈ 2.7 µM) in assay [4]; 0.1 µg/mL (≈ 0.173 µM) in assay [5]; 6.25 µg/mL (≈ 10.8 µM) in assay [6].

On to `CCOC(=O)Oc1c(C(=O)NC(C(=O)N[C@@H]2C(=O)N3[C@@H]2SC(C)(C)[C@@H]3C(=O)O)c2cccc(Cl)c2)cnc2cccnc12` (stereo partly drawn) [Example 12], for which the MIC in assay [1] came out at 1.56 µg/mL (≈ 2.48 µM); in assay [2] it was 12.5 µg/mL (≈ 19.9 µM); in assay [3] it was 3.13 µg/mL (≈ 4.98 µM); in assay [4] it was 1.56 µg/mL (≈ 2.48 µM); in assay [5], 0.05 µg/mL (≈ 0.0796 µM); in assay [6], 1.56 µg/mL (≈ 2.48 µM).

For `COc1cc(C(NC(=O)c2cnc3cccnc3c2O)C(=O)NC2C(=O)N3C2SC(C)(C)C3C(=O)O)ccc1O` (stereo not drawn) [Example 64], the minimal inhibitory concentration (MIC) in assay [1] was determined as 3.13 µg/mL (≈ 5.51 µM); in assay [2], 12.5 µg/mL (≈ 22 µM); in assay [3], 1.56 µg/mL (≈ 2.75 µM); in assay [4], 1.56 µg/mL (≈ 2.75 µM); in assay [5], 0.05 µg/mL (≈ 0.0881 µM); in assay [6], 3.13 µg/mL (≈ 5.51 µM).

On to `CC1(C)S[C@@H]2[C@H](NC(=O)[C@H](NC(=O)c3cnc4cccnc4c3O)c3ccc(N)cc3)C(=O)N2[C@H]1C(=O)O` [Example 2, D-α-(4-hydroxy-1,5-naphthyridine-3-carboxamido)-p-aminobenzylpenicillin sodium salt], for which the MIC in assay [1] is 0.78 µg/mL; in assay [2] it was 12.5 µg/mL; in assay [3], 1.56 µg/mL; in assay [4], 1.56 µg/mL; in assay [5], 0.025 µg/mL; in assay [6], 1.56 µg/mL.

Consider `CCNc1ccc(C(NC(=O)c2cnc3cccnc3c2O)C(=O)N[C@@H]2C(=O)N3[C@@H]2SC(C)(C)[C@@H]3C(=O)O)cc1` (stereo partly drawn) [Example 10], for which the MIC in assay [1] is 0.78 µg/mL (≈ 1.38 µM); in assay [2], 12.5 µg/mL (≈ 22.1 µM); in assay [3], 1.56 µg/mL (≈ 2.76 µM); in assay [4], 1.56 µg/mL (≈ 2.76 µM); in assay [5] it was 0.05 µg/mL (≈ 0.0886 µM); in assay [6], 0.78 µg/mL (≈ 1.38 µM).

Regarding `CC1(C)S[C@@H]2[C@H](NC(=O)C(NC(=O)c3cnc4cccnc4c3O)c3cccc(I)c3)C(=O)N2[C@H]1C(=O)O` (stereo partly drawn) [Example 11], the MIC was determined as 1.56 µg/mL (≈ 2.41 µM) in assay [1]; 12.5 µg/mL (≈ 19.3 µM) in assay [2]; 3.13 µg/mL (≈ 4.83 µM) in assay [3]; 1.56 µg/mL (≈ 2.41 µM) in assay [4]; 0.05 µg/mL (≈ 0.0772 µM) in assay [5]; 1.56 µg/mL (≈ 2.41 µM) in assay [6].

For `CC1(C)S[C@@H]2[C@H](NC(=O)C(NC(=O)c3cnc4ccc(O)nc4c3O)c3cccc(N)c3)C(=O)N2[C@H]1C(=O)O` (stereo partly drawn) [Example 30], the MIC in assay [1] worked out at 0.78 µg/mL (≈ 1.41 µM); in assay [2], 6.25 µg/mL (≈ 11.3 µM); in assay [3], 1.56 µg/mL (≈ 2.82 µM); in assay [4] it was 1.56 µg/mL (≈ 2.82 µM); in assay [5], 0.05 µg/mL (≈ 0.0905 µM); in assay [6], 1.56 µg/mL (≈ 2.82 µM).

Turning to `CC(=O)Nc1cccc([C@@H](NC(=O)c2cnc3ccccc3c2OC(=O)C(C)(C)C)C(=O)N[C@@H]2C(=O)N3[C@@H]2SC(C)(C)[C@@H]3C(=O)O)c1` [Example 7, D-α-(4-pivaloyloxyquinoline-3-carboxamido)-m-acetylaminobenzylpenicillin], the MIC in assay [1] turned out to be 3.13 µg/mL (≈ 4.73 µM); in assay [2], 6.25 µg/mL (≈ 9.44 µM); in assay [3] it was 6.25 µg/mL (≈ 9.44 µM); in assay [4], 0.78 µg/mL (≈ 1.18 µM); in assay [5], 0.2 µg/mL (≈ 0.302 µM); in assay [6], 6.25 µg/mL (≈ 9.44 µM).

For the molecule `Cc1ccc(C(NC(=O)c2cnc3cccnc3c2O)C(=O)N[C@@H]2C(=O)N3[C@@H]2SC(C)(C)[C@@H]3C(=O)O)cc1` (stereo partly drawn) [Example 13], the MIC amounted to 0.78 µg/mL (≈ 1.46 µM) in assay [1]; 6.25 µg/mL (≈ 11.7 µM) in assay [2]; 1.56 µg/mL (≈ 2.91 µM) in assay [3]; 1.56 µg/mL (≈ 2.91 µM) in assay [4]; 0.05 µg/mL (≈ 0.0934 µM) in assay [5]; 1.56 µg/mL (≈ 2.91 µM) in assay [6].

Take `CCOC(=O)Oc1c(C(=O)N[C@@H](C(=O)N[C@@H]2C(=O)N3[C@@H]2SC(C)(C)[C@@H]3C(=O)O)c2ccc(OC)cc2)cnc2cccnc12` [Example 3, D-α-(4-ethoxycarbonyloxy-1,5-naphthyridine-3-carboxamido)-p-methoxybenzylpenicillin]: the minimal inhibitory concentration (MIC) in assay [1] worked out at 3.13 µg/mL (≈ 5.02 µM); in assay [2] it was 12.5 µg/mL (≈ 20 µM); in assay [3] it was 3.13 µg/mL (≈ 5.02 µM); in assay [4], 1.56 µg/mL (≈ 2.5 µM); in assay [5], 0.1 µg/mL (≈ 0.16 µM); in assay [6], 6.25 µg/mL (≈ 10 µM).

As to `CC1(C)SC2C(NC(=O)C(NC(=O)c3cnc4nc(N)ncc4c3O)c3cccc(N)c3)C(=O)N2C1C(=O)O` (stereo not drawn) [Example 42], the MIC in assay [1] was 3.13 µg/mL (≈ 5.66 µM); in assay [2], 12.5 µg/mL (≈ 22.6 µM); in assay [3] it was 3.13 µg/mL (≈ 5.66 µM); in assay [4], 1.56 µg/mL (≈ 2.82 µM); in assay [5], 0.05 µg/mL (≈ 0.0905 µM); in assay [6] it was 1.56 µg/mL (≈ 2.82 µM).

For the molecule `Cc1nc(C)c2ncc(C(=O)NC(C(=O)NC3C(=O)N4C3SC(C)(C)C4C(=O)O)c3cccc(N)c3)c(O)c2n1` (stereo not drawn) [Example 35], the MIC in assay [1] is 0.78 µg/mL (≈ 1.38 µM); in assay [2], 6.25 µg/mL (≈ 11 µM); in assay [3], 1.56 µg/mL (≈ 2.76 µM); in assay [4], 1.56 µg/mL (≈ 2.76 µM); in assay [5], 0.025 µg/mL (≈ 0.0442 µM); in assay [6], 1.56 µg/mL (≈ 2.76 µM).

As for `CCNc1ccc2ncc(C(=O)NC(C(=O)NC3C(=O)N4C3SC(C)(C)C4C(=O)O)c3cccc(N)c3)c(O)c2n1` (stereo not drawn) [Example 55], the MIC is 0.78 µg/mL (≈ 1.35 µM) in assay [1]; 6.25 µg/mL (≈ 10.8 µM) in assay [2]; 1.56 µg/mL (≈ 2.69 µM) in assay [3]; 1.56 µg/mL (≈ 2.69 µM) in assay [4]; 0.025 µg/mL (≈ 0.0431 µM) in assay [5]; 0.78 µg/mL (≈ 1.35 µM) in assay [6].

Turning to `Cc1ccc2c(O)c(C(=O)NC(C(=O)N[C@@H]3C(=O)N4[C@@H]3SC(C)(C)[C@@H]4C(=O)O)c3cccc(N)c3)cnc2c1` (stereo partly drawn) [Example 16], the MIC was 6.25 µg/mL (≈ 11.4 µM) in assay [1]; 3.13 µg/mL (≈ 5.69 µM) in assay [3]; 0.78 µg/mL (≈ 1.42 µM) in assay [4]; 0.39 µg/mL (≈ 0.71 µM) in assay [5]; 3.13 µg/mL (≈ 5.69 µM) in assay [6].

Regarding `CC1(C)S[C@@H]2[C@H](NC(=O)C(C(=O)O)c3ccccc3)C(=O)N2[C@H]1C(=O)O` (stereo partly drawn) [Carbenicillin, reference compound], the MIC in assay [2] turned out to be 200 µg/mL (≈ 529 µM).
